Measured values reported in PubChem BioAssay (NCI).
“And” between values parts separate entries of the source, which are not always exact repeats. Equal values may be shown once.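 Interpolation was linear, between the two tested concentrations surrounding the appropriate level; five concentrations were tested over 48 hours in 96-well plates. TGI is the concentration that stops growth completely.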

system: SK-OV-3 ovarian; experiment: inhibition of tumour cell growth, NCI panel, 48 h

SMILES | TGI [µM]
NN/C(=N\S(=O)(=O)c1cc2ccccc2s1)Nc1ccc(Cl)cc1 | > 100

system: EKVX NSCLC; experiment: inhibition of tumour cell growth, NCI panel, 48 h

SMILES | TGI [µM]
COc1cc(C(=O)N(Cc2cccnc2)C(=S)N(Cc2cccnc2)C(=O)c2cc(OC)c(OC)c(OC)c2)cc(OC)c1OC | > 100
COc1cc(CNCc2cc(OC)c(OC)c(OC)c2)cc(OC)c1OC | > 10
CCOC(=O)CNc1c(OCc2ccccc2)c(=O)c1=O | > 100
Oc1c(CN2CCOCC2)ccc2cccnc12 | > 10
Cc1ccc2c(c1)C(C(=O)N[C@@H]1C(=O)N3[C@@H]1SC(C)(C)[C@@H]3C(=O)O)OCCC2 (some centres undefined) | > 100
CCOCc1nc2c(OC)cc(-c3nc4ccc(N5CCN(C)CC5)cc4[nH]3)c(OC)c2[nH]1 | > 100
CON(C)C(=O)CNC(=O)OCC1c2ccccc2-c2ccccc21 | > 100
CCOC(=O)C(=Cc1[nH]c2ccccc2c1-c1c[nH]c2ccccc12)C(=O)OCC | 31.8
CSc1ncnc2c1ncn2C1CC(Oc2ccc(C)cc2)C(COc2ccc(C)cc2)O1 (centres undefined) | > 100
Cc1ccc(N=Nc2c(O)ccc3cc(S(=O)(=O)O)cc(S(=O)(=O)O)c23)cc1 | > 100
O=C(O)Cc1cccc2c(=O)c3ccccc3oc12 | > 100
CCOC(=O)N/N=C(/N)c1cccc([N+](=O)[O-])c1 | > 100
COC1=C(OC)C(=O)C(Cc2c(C)nc3sc(C)cn23)=C(C)C1=O | 35.1
CC(=O)OC(/C=C/c1ccccc1)=C(OC(C)C)/C1=C(\c2ccccc2)SCCCSC1=O | > 100
COc1cccc(-c2ccc3c4c2O[C@H]2C(=O)CC[C@@]5(O)[C@@H](C3)N(CC3CC3)CC[C@]425)c1 | 41
O=C1/C(=C/c2ccc([N+](=O)[O-])cc2)C(=O)N(c2ccccc2)C1c1ccccc1 (centres undefined) | > 10

SMILES | TGI [µM]
NC(N)=NCCC[C@H](N)C(=O)NCC(=O)N[C@@H](CC(=O)O)c1ncc(NC(=O)C(F)(F)F)o1 | > 25
Cc1cc(S(=O)(=O)N=C2N(Cc3ccccc3)CCN2Cc2ccccc2)c(S)cc1Cl | > 100
Oc1ccc(-c2nc(-c3cccnc3)c(-c3ccc(Cl)cc3)[nH]2)cc1 | 27.4
CSc1ccc2c(cc1=O)[C@@H](NC(=O)c1ccc(N)cc1)CCc1cc(O)c(O)c(O)c1-2 | > 100
CN1CCC(O)(C(C)(C)C)CC1 | > 100
Cn1cc(NC(=O)c2cc(NC(=O)CN=C(N)N)cn2C)cc1C(=O)NCCC(=N)N | > 100
CCOC(=O)c1cc(C(O)P2(=O)N(CC(C)(C)C)[C@@H]3CCCC[C@H]3N2CC(C)(C)C)cn1C(=O)OC(C)(C)C (some centres undefined) | 55.6
COc1cc(/C=C2/C[C@H]3[C@@H]4CC=C5C[C@@H](O)CC[C@]5(C)[C@H]4CC[C@]3(C)NC2=O)cc(OC)c1OC | > 92.8
O=C1C=C(C2=CC(=O)C(=O)c3ccccc32)c2ccccc2C1=O | > 100
C(=Nc1ccc(-c2nc3ccccc3[nH]2)cc1)c1cccs1 | > 100
C[N+](C)(C)CC1CCCCCCCCCCC1=O (centres undefined) | > 100
Cn1c2c(c3ccccc31)CC1c3c(c4ccccc4n3C)CC21 (centres undefined) | > 100
Cc1ccc(/C=C2\CCCc3ccccc3C2=O)cc1 | 60.9
COCN(CCC1=CCCCC1)C(=O)OC | > 100
NN/C(=N\S(=O)(=O)c1cc2ccccc2s1)Nc1ccc(Cl)cc1 | 42.2

system: NCI/ADR-RES ovarian; experiment: inhibition of tumour cell growth, NCI panel, 48 h

SMILES | TGI
COc1cc(C(=O)N(Cc2cccnc2)C(=S)N(Cc2cccnc2)C(=O)c2cc(OC)c(OC)c(OC)c2)cc(OC)c1OC | > 100 µM
COc1cc(CNCc2cc(OC)c(OC)c(OC)c2)cc(OC)c1OC | > 10 µM
CCOC(=O)CNc1c(OCc2ccccc2)c(=O)c1=O | > 100 µM
Oc1c(CN2CCOCC2)ccc2cccnc12 | 6.6 µM
Cc1ccc2c(c1)C(C(=O)N[C@@H]1C(=O)N3[C@@H]1SC(C)(C)[C@@H]3C(=O)O)OCCC2 (some centres undefined) | > 100 µM
CCOCc1nc2c(OC)cc(-c3nc4ccc(N5CCN(C)CC5)cc4[nH]3)c(OC)c2[nH]1 | > 100 µM
CON(C)C(=O)CNC(=O)OCC1c2ccccc2-c2ccccc21 | > 100 µM
CCOC(=O)C(=Cc1[nH]c2ccccc2c1-c1c[nH]c2ccccc12)C(=O)OCC | 47.5 µM
CSc1ncnc2c1ncn2C1CC(Oc2ccc(C)cc2)C(COc2ccc(C)cc2)O1 (centres undefined) | > 100 µM
Cc1ccc(N=Nc2c(O)ccc3cc(S(=O)(=O)O)cc(S(=O)(=O)O)c23)cc1 | > 100 µM
O=C(O)Cc1cccc2c(=O)c3ccccc3oc12 | > 100 µM
CCOC(=O)N/N=C(/N)c1cccc([N+](=O)[O-])c1 | > 100 µM
COC1=C(OC)C(=O)C(Cc2c(C)nc3sc(C)cn23)=C(C)C1=O | 36.7 µM
CC(=O)OC(/C=C/c1ccccc1)=C(OC(C)C)/C1=C(\c2ccccc2)SCCCSC1=O | > 100 µM
COc1cccc(-c2ccc3c4c2O[C@H]2C(=O)CC[C@@]5(O)[C@@H](C3)N(CC3CC3)CC[C@]425)c1 | 38.8 µM
O=C1/C(=C/c2ccc([N+](=O)[O-])cc2)C(=O)N(c2ccccc2)C1c1ccccc1 (centres undefined) | > 10 µM

SMILES | TGI
NC(N)=NCCC[C@H](N)C(=O)NCC(=O)N[C@@H](CC(=O)O)c1ncc(NC(=O)C(F)(F)F)o1 | > 25 µM
Cc1cc(S(=O)(=O)N=C2N(Cc3ccccc3)CCN2Cc2ccccc2)c(S)cc1Cl | > 100 µM
Oc1ccc(-c2nc(-c3cccnc3)c(-c3ccc(Cl)cc3)[nH]2)cc1 | 36.9 µM
CSc1ccc2c(cc1=O)[C@@H](NC(=O)c1ccc(N)cc1)CCc1cc(O)c(O)c(O)c1-2 | 57.3 µM and 61.6 µM
CN1CCC(O)(C(C)(C)C)CC1 | > 100 µM
Cn1cc(NC(=O)c2cc(NC(=O)CN=C(N)N)cn2C)cc1C(=O)NCCC(=N)N | > 100 µM
CCOC(=O)c1cc(C(O)P2(=O)N(CC(C)(C)C)[C@@H]3CCCC[C@H]3N2CC(C)(C)C)cn1C(=O)OC(C)(C)C (some centres undefined) | 44.6 µM
COc1cc(/C=C2/C[C@H]3[C@@H]4CC=C5C[C@@H](O)CC[C@]5(C)[C@H]4CC[C@]3(C)NC2=O)cc(OC)c1OC | > 65.2 µM
O=C1C=C(C2=CC(=O)C(=O)c3ccccc32)c2ccccc2C1=O | > 100 µM
C(=Nc1ccc(-c2nc3ccccc3[nH]2)cc1)c1cccs1 | > 100 µM
C[N+](C)(C)CC1CCCCCCCCCCC1=O (centres undefined) | > 100 µM
Cn1c2c(c3ccccc31)CC1c3c(c4ccccc4n3C)CC21 (centres undefined) | > 100 µM
Cc1ccc(/C=C2\CCCc3ccccc3C2=O)cc1 | 99.3 µM
COCN(CCC1=CCCCC1)C(=O)OC | > 100 µM
NN/C(=N\S(=O)(=O)c1cc2ccccc2s1)Nc1ccc(Cl)cc1 | 46.4 µM

system: HOP-62 NSCLC; experiment: inhibition of tumour cell growth, NCI panel, 48 h

SMILES | TGI
COc1cc(C(=O)N(Cc2cccnc2)C(=S)N(Cc2cccnc2)C(=O)c2cc(OC)c(OC)c(OC)c2)cc(OC)c1OC | > 100 µM
COc1cc(CNCc2cc(OC)c(OC)c(OC)c2)cc(OC)c1OC | > 10 µM
CCOC(=O)CNc1c(OCc2ccccc2)c(=O)c1=O | > 100 µM
Oc1c(CN2CCOCC2)ccc2cccnc12 | > 10 µM
Cc1ccc2c(c1)C(C(=O)N[C@@H]1C(=O)N3[C@@H]1SC(C)(C)[C@@H]3C(=O)O)OCCC2 (some centres undefined) | > 100 µM
CCOCc1nc2c(OC)cc(-c3nc4ccc(N5CCN(C)CC5)cc4[nH]3)c(OC)c2[nH]1 | 62.8 µM
CON(C)C(=O)CNC(=O)OCC1c2ccccc2-c2ccccc21 | > 100 µM
CCOC(=O)C(=Cc1[nH]c2ccccc2c1-c1c[nH]c2ccccc12)C(=O)OCC | 28.1 µM
CSc1ncnc2c1ncn2C1CC(Oc2ccc(C)cc2)C(COc2ccc(C)cc2)O1 (centres undefined) | > 100 µM
Cc1ccc(N=Nc2c(O)ccc3cc(S(=O)(=O)O)cc(S(=O)(=O)O)c23)cc1 | > 100 µM
O=C(O)Cc1cccc2c(=O)c3ccccc3oc12 | > 100 µM
CCOC(=O)N/N=C(/N)c1cccc([N+](=O)[O-])c1 | > 100 µM
COC1=C(OC)C(=O)C(Cc2c(C)nc3sc(C)cn23)=C(C)C1=O | 35.7 µM
CC(=O)OC(/C=C/c1ccccc1)=C(OC(C)C)/C1=C(\c2ccccc2)SCCCSC1=O | > 100 µM
COc1cccc(-c2ccc3c4c2O[C@H]2C(=O)CC[C@@]5(O)[C@@H](C3)N(CC3CC3)CC[C@]425)c1 | 35.4 µM
O=C1/C(=C/c2ccc([N+](=O)[O-])cc2)C(=O)N(c2ccccc2)C1c1ccccc1 (centres undefined) | > 10 µM

SMILES | TGI
NC(N)=NCCC[C@H](N)C(=O)NCC(=O)N[C@@H](CC(=O)O)c1ncc(NC(=O)C(F)(F)F)o1 | > 25 µM
Cc1cc(S(=O)(=O)N=C2N(Cc3ccccc3)CCN2Cc2ccccc2)c(S)cc1Cl | > 100 µM
Oc1ccc(-c2nc(-c3cccnc3)c(-c3ccc(Cl)cc3)[nH]2)cc1 | 30.9 µM
CSc1ccc2c(cc1=O)[C@@H](NC(=O)c1ccc(N)cc1)CCc1cc(O)c(O)c(O)c1-2 | 27.8 µM and 34.7 µM
CN1CCC(O)(C(C)(C)C)CC1 | > 100 µM
Cn1cc(NC(=O)c2cc(NC(=O)CN=C(N)N)cn2C)cc1C(=O)NCCC(=N)N | > 100 µM
CCOC(=O)c1cc(C(O)P2(=O)N(CC(C)(C)C)[C@@H]3CCCC[C@H]3N2CC(C)(C)C)cn1C(=O)OC(C)(C)C (some centres undefined) | 28.1 µM
COc1cc(/C=C2/C[C@H]3[C@@H]4CC=C5C[C@@H](O)CC[C@]5(C)[C@H]4CC[C@]3(C)NC2=O)cc(OC)c1OC | > 89.1 µM
O=C1C=C(C2=CC(=O)C(=O)c3ccccc32)c2ccccc2C1=O | 64.6 µM
C(=Nc1ccc(-c2nc3ccccc3[nH]2)cc1)c1cccs1 | > 100 µM
C[N+](C)(C)CC1CCCCCCCCCCC1=O (centres undefined) | > 100 µM
Cn1c2c(c3ccccc31)CC1c3c(c4ccccc4n3C)CC21 (centres undefined) | > 100 µM
Cc1ccc(/C=C2\CCCc3ccccc3C2=O)cc1 | 60.6 µM
COCN(CCC1=CCCCC1)C(=O)OC | > 100 µM
NN/C(=N\S(=O)(=O)c1cc2ccccc2s1)Nc1ccc(Cl)cc1 | 38.2 µM

system: MOLT-4 leukemia; experiment: inhibition of tumour cell growth, NCI panel, 48 h

SMILES | TGI [µM]
COc1cc(C(=O)N(Cc2cccnc2)C(=S)N(Cc2cccnc2)C(=O)c2cc(OC)c(OC)c(OC)c2)cc(OC)c1OC | > 100
COc1cc(CNCc2cc(OC)c(OC)c(OC)c2)cc(OC)c1OC | > 10
CCOC(=O)CNc1c(OCc2ccccc2)c(=O)c1=O | > 100
Oc1c(CN2CCOCC2)ccc2cccnc12 | > 10
Cc1ccc2c(c1)C(C(=O)N[C@@H]1C(=O)N3[C@@H]1SC(C)(C)[C@@H]3C(=O)O)OCCC2 (some centres undefined) | > 100
CCOCc1nc2c(OC)cc(-c3nc4ccc(N5CCN(C)CC5)cc4[nH]3)c(OC)c2[nH]1 | 76.6
CON(C)C(=O)CNC(=O)OCC1c2ccccc2-c2ccccc21 | > 100
CCOC(=O)C(=Cc1[nH]c2ccccc2c1-c1c[nH]c2ccccc12)C(=O)OCC | > 100
CSc1ncnc2c1ncn2C1CC(Oc2ccc(C)cc2)C(COc2ccc(C)cc2)O1 (centres undefined) | > 100
Cc1ccc(N=Nc2c(O)ccc3cc(S(=O)(=O)O)cc(S(=O)(=O)O)c23)cc1 | > 100
O=C(O)Cc1cccc2c(=O)c3ccccc3oc12 | > 100
CCOC(=O)N/N=C(/N)c1cccc([N+](=O)[O-])c1 | > 100
COC1=C(OC)C(=O)C(Cc2c(C)nc3sc(C)cn23)=C(C)C1=O | 4.23
CC(=O)OC(/C=C/c1ccccc1)=C(OC(C)C)/C1=C(\c2ccccc2)SCCCSC1=O | > 100
COc1cccc(-c2ccc3c4c2O[C@H]2C(=O)CC[C@@]5(O)[C@@H](C3)N(CC3CC3)CC[C@]425)c1 | 24.7
